In patent US20200237905A1, “COMBINATION THERAPY WITH A BET INHIBITOR, A BCL-2 INHIBITOR AND AN ANTI-CD20 ANTIBODY” (Hoffmann-La Roche Inc., priority 2017, published 2020):

Assays:
[1] = test system: WSU-DLCL2 xenografts (CD20+); experiment: In vivo antitumor efficacy against WSU-DLCL2 xenografts, obinutuzumab study (FIG. 1-2); design: species or system human; settings: for median tumor volume: venetoclax 100 mg/kg, RG6146 30 mg/kg; for TGI % (tumor growth inhibition compared to control) / npTCR (non-parametric Treatment to Control Ratio) / Tumor free mice: Day 36; for TGI % (tumor growth inhibition compared to control): obinutuzumab 10 mg/kg once weekly; for Tumor free mice: tumor free mice / mice in group
Experimental: (§1) Antibody buffer included histidine. Antibody solution was diluted appropriately in buffer from stock prior injections. BET inhibitor RG6146 was provided as powder from Roche, Basel, Switzerland and resuspended prior to use. Bcl-2 inhibitor GDC-0199 was provided by Genentech, South San Francisco, USA and formulated prior to use.
(§2) The original WSU-DLCL2 human B cell NHL cell line (DLBCL) was purchased from DSMZ (Braunschweig, Germany). Expansion of tumor cells for the transplantation was done by the TAP CompacT CellBase Cell Culture Roboter according to the protocol. Tumor cell line was routinely cultured in RPMI 1640 medium, FCS 10% and L-Glutamin 2 mM at 37° C. in a water-saturated atmosphere at 5% CO2. Culture passage was performed with trypsin/EDTA 1× splitting twice/week and passage 3 used for transplantation.
(§3) Female SCID beige mice, age 6-7 weeks at arrival, maintained under specific-pathogen-free condition with daily cycles of 12 h light/12 h darkness according to committed guidelines. Experimental study protocol was reviewed and approved by local government. After arrival animals were maintained in animal facility for one week to get accustomed to new environment and for observation. Continuous health monitoring was carried out on regular basis. Diet food and autoclaved water were provided ad libitum.
(§4) Animals were controlled daily for clinical symptoms and detection of adverse effects. For monitoring throughout the experiment body weight of animals was documented.
CD20 antibody obinutuzumab was administered as single agent and in combination at 10 mg/kg ip once weekly on days 10, 17, 24 and 31. The corresponding vehicle was administered on the same days. BET inhibitor RG6146 ip treatment at 30 mg/kg was done as single agent and in combination on days 10-18, 21-25 and 28-32. Finally, Bcl-2 inhibitor venetoclax (GDC-0199) was given orally at 100 mg/kg on days 10-18, 21-25 and 28-32 as single agent and in combination.
For the study shown in FIG. 1, WSU-DLCL2 human Diffuse Large B-cell Lymphoma (DLBCL) cells (CD20+) were s.c. inoculated with Matrigel onto female SCID beige mice. Tumor bearing mice were randomized 10 days later to the indicated study groups and compound treatment initiated. Tumor bearing animals were treated with vehicle control, with the BET inhibitor RG6146 at 30 mg/kg, with the anti-CD20 antibody obinutuzumab at 10 mg/kg or with Bcl-2 inhibitor venetoclax (GDC-0199) at 100 mg/kg as single agent. Additionally, three groups were treated with a dual combination of either RG6146 and venetoclax, or RG6146 and obinutuzumab or obinutuzumab and venetoclax. Finally, one study group received the triple combination of BET inhibitor RG6146, CD20 antibody obinutuzumab and Bcl-2 inhibitor venetoclax (GDC-0199). […] In constrast to this, the respective double combination regimens reached a tumor regrowth after about 20 days.

[2] = test system: WSU-DLCL2 xenografts (CD20+); experiment: In vivo antitumor efficacy against WSU-DLCL2 xenografts, rituximab study (FIG. 3); design: species or system human; settings: for median tumor volume / npTCR (non-parametric Treatment to Control Ratio) / Tumor free mice: rituximab 10 mg/kg; for median tumor volume: venetoclax 100 mg/kg, RG6146 30 mg/kg; for TGI % (tumor growth inhibition): rituximab 10 mg/kg once weekly, venetoclax 100 mg/kg po and RG6146 30 mg/kg ip days 11-17; for npTCR (non-parametric Treatment to Control Ratio) / Tumor free mice: venetoclax 100 mg/kg po, RG6146 30 mg/kg ip; for Tumor free mice: tumor free mice / mice in group
Experimental: as §1, §2, §3, §4
The corresponding vehicle was administered on the same days. BET inhibitor RG6146 ip treatment at 30 mg/kg was done as single agent and in combination on days 11-17. Finally, bcl-2 inhibitor venetoclax (GDC-0199) was given orally at 100 mg/kg on days 11-17 as single agent and in combination.

[3] = Day 10 (randomisation, start of treatment), s.c. xenograft in female SCID beige mice, obinutuzumab 10 mg/kg
[4] = Day 14, female SCID beige mice, obinutuzumab 10 mg/kg
[5] = Day 17, female SCID beige mice, obinutuzumab 10 mg/kg
[6] = Day 21, female SCID beige mice, obinutuzumab 10 mg/kg
[7] = Day 24, female SCID beige mice, obinutuzumab 10 mg/kg
[8] = Day 28, female SCID beige mice, obinutuzumab 10 mg/kg
[9] = Day 31, female SCID beige mice, obinutuzumab 10 mg/kg
[10] = Day 36 (treatment ended day 32), female SCID beige mice, obinutuzumab 10 mg/kg
[11] = female SCID beige mice, venetoclax 100 mg/kg po, RG6146 30 mg/kg ip
[12] = obinutuzumab 10 mg/kg, venetoclax 100 mg/kg po, RG6146 30 mg/kg ip
[13] = Day 11, s.c. xenograft in female SCID beige mice

Compound | median tumor volume [1, 3] [mm^3] | median tumor volume [1, 4] [mm^3] | median tumor volume [1, 5] [mm^3] | median tumor volume [1, 6] [mm^3] | median tumor volume [1, 7] [mm^3] | median tumor volume [1, 8] [mm^3] | median tumor volume [1, 9] [mm^3] | median tumor volume [1, 10] [mm^3] | TGI % (tumor growth inhibition compared to control) [1, 11] [%] | npTCR (non-parametric Treatment to Control Ratio) [1, 12] | Tumor free mice [1, 12] | median tumor volume [2, 13] [mm^3] | median tumor volume ([2]; Day 14, female SCID beige mice) [mm^3] | median tumor volume ([2]; Day 18, female SCID beige mice) [mm^3] | median tumor volume ([2]; Day 21, female SCID beige mice) [mm^3] | median tumor volume ([2]; Day 25, female SCID beige mice) [mm^3] | TGI % (tumor growth inhibition) ([2]; Day 28, female SCID beige mice) [%] | median tumor volume ([2]; Day 28, female SCID beige mice) [mm^3] | npTCR (non-parametric Treatment to Control Ratio) ([2]; Day 28) | Tumor free mice ([2]; Day 28) | other results
Cc1sc2c(c1C)C(c1ccc(Cl)cc1)=N[C@@H](CC(=O)NCCCN1CCN(C)CC1)c1nnc(C)n1-2 [RG6146, 2-[(S)-4-(4-Chloro-phenyl)-2,3,9-trimethyl-6H-1-thia-5,7,8,9a-tetraaza-cyclopenta[e]azulen-6-yl]-N-[3-(4-methyl-piperazin-1-yl)-propyl]-acetamide] | 137 | 200 | 185 | 198 | 387 | 441 | 489 | 962 | 46 | 0.50 | 0/9 | 134 | 161 | 270 | 245 | 453 | 30 | 550 | 0.71 | 0/9 | 
CC1(C)CCC(CN2CCN(c3ccc(C(=O)NS(=O)(=O)c4ccc(NCC5CCOCC5)c([N+](=O)[O-])c4)c(Oc4cnc5[nH]ccc5c4)c3)CC2)=C(c2ccc(Cl)cc2)C1 [venetoclax, 4-(4-{[2-(4-chlorophenyl)-4,4-dimethylcyclohex-1-en-1-yl]methyl}piperazin-1-yl)-N-({3-nitro-4-[(tetrahydro-2H-pyran-4-ylmethyl)amino]phenyl}sulfonyl)-2-(1H-pyrrolo[2,3-b]pyridin-5-yloxy)benzamide] | 137 | 202 | 226 | 212 | 337 | 494 | 565 | 906 | 49 | 0.53 | 0/10 | 136 | 162 | 267 | 388 | 497 | 34 | 554 | 0.66 | 0/10 | 
obinutuzumab: Type II anti-CD20 antibody, synonymous for GA101, formerly known as afutuzumab | 136 | 131 | 112 | 110 | 111 | 124 | 132 | 382 | 84 | 0.20 | 0/10 |  |  |  |  |  |  |  |  |  | median tumor volume ([1]; Day 39 (follow-up after treatment), female SCID beige mice, obinutuzumab 10 mg/kg): 405 mm^3; median tumor volume ([1]; Day 43 (follow-up after treatment), female SCID beige mice, obinutuzumab 10 mg/kg): 700 mm^3; median tumor volume ([1]; Day 46 (follow-up after treatment), female SCID beige mice, obinutuzumab 10 mg/kg): 713 mm^3; median tumor volume ([1]; Day 50 (follow-up after treatment), female SCID beige mice, obinutuzumab 10 mg/kg): 758 mm^3; Tumor growth delay (Days): time until relative tumor volume reached again 100% (100% at beginning, Day 10) ([1]; female SCID beige mice, obinutuzumab 10 mg/kg, venetoclax 100 mg/kg po, RG6146 30 mg/kg ip): 21 days
